These results are taken from patent US20040082635A1, “Fused cyclic compounds and medicinal use thereof” (priority 2001, published 2004).

Structures can show the parent of a compound that is named as a salt. Where only a bound is given, the exact number is not on record here.

In the first experiment the target is T1, HCV polymerase (Hepatitis C virus genotype 1b, UniProt P26663).
T1 construct: a region encoding NS5B (591 amino acids; J Virol 1991 Mar, 65(3), 1105-13) was amplified by PCR; 6 His (N); made in house; host or cells: Escherichia coli
T1 sequence (P26663 2420-3010): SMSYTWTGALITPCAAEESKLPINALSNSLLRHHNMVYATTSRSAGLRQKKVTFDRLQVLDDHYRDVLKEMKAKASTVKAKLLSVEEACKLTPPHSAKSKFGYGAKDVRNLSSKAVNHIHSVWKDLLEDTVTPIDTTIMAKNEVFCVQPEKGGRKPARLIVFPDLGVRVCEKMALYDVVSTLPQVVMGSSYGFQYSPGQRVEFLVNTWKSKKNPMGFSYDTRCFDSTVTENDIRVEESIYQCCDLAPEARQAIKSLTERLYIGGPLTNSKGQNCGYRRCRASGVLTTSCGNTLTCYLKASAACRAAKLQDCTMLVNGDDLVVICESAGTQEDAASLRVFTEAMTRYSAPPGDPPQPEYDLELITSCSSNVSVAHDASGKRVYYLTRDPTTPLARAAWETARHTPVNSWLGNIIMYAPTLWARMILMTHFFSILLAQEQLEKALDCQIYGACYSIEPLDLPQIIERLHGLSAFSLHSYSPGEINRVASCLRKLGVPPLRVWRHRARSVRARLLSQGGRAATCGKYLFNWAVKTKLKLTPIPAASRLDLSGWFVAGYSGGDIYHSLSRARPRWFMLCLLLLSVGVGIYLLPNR
Description: biochemical. The note with it: HCV polymerase inhibitory activity IC50.
For orientation: IC50 means the concentration that inhibits the measured activity by half. As for `CN(C)C(=O)c1ccc(-c2ccc(Cl)cc2)c(COc2ccc(-c3nc4cc(C(=O)O)ccc4n3C3CCCCC3)cc2)c1` [Example 232, 2-{4-[2-(4-chlorophenyl)-5-dimethylcarbamoylbenzyloxy]phenyl}-1-cyclohexylbenzimidazole-5-carboxylic acid], the half-inhibitory concentration (IC50) is 15 nM.

The same experiment, now with this note: read-out: HCV polymerase inhibitory activity IC50.
As for `Cc1nc(-c2ccc(Cl)cc2)c(COc2ccc(-c3nc4cc(C(=O)O)ccc4n3C3CCCCC3)cc2)s1` [Example 218, 2-{4-[{4-(4-chlorophenyl)-2-methyl-5-thiazolyl}methoxy]phenyl}-1-cyclohexylbenzimidazole-5-carboxylic acid], the half-inhibitory concentration (IC50) came out at 33 nM.

Turning to `O=C(O)c1ccc2c(c1)nc(-c1ccc(OC3CCCN(Cc4ccc(Cl)cc4)C3)cc1)n2C1CCCCC1` (stereo not shown) [Example 219, 2-{4-[1-(4-chlorobenzyl)-3-piperidyloxy]phenyl}-1-cyclohexylbenzimidazole-5-carboxylic acid], the half-inhibitory concentration (IC50) stood at 130 nM.

Regarding `Cc1nc(COc2cccc(Oc3ccc(-c4nc5cc(C(=O)O)ccc5n4C4CCCCC4)cc3)c2)cs1` [Example 220, 1-cyclohexyl-2-{4-[3-{(2-methyl-4-thiazolyl)methoxy}phenoxy]-phenyl}benzimidazole-5-carboxylic acid], the IC50 was determined as 73 nM.

Turning to `Cc1nc(C)c(COc2cccc(Oc3ccc(-c4nc5cc(C(=O)O)ccc5n4C4CCCCC4)cc3)c2)s1` [Example 221, 1-cyclohexyl-2-{4-[3-{(2,4-dimethyl-5-thiazolyl)methoxy}phenoxy]-phenyl}benzimidazole-5-carboxylic acid], the IC50 was 58 nM.

Consider `O=C(O)c1ccc2c(c1)nc(-c1ccc(Oc3cccc(-c4cc(Cl)cc(Cl)c4)c3)cc1)n2C1CCCCC1` [Example 222, 1-cyclohexyl-2-{4-[3-(3,5-dichlorophenyl)phenoxy]phenyl}-benzimidazole-5-carboxylic acid], for which the half-inhibitory concentration (IC50) was determined as 41 nM.

As to `O=C(O)c1ccc2c(c1)nc(-c1ccc(OC3CCN(Cc4ccc(Cl)cc4)CC3)cc1)n2C1CCCCC1` [Example 223, 2-{4-[1-(4-chlorobenzyl)-4-piperidyloxy]phenyl}-1-cyclohexylbenzimidazole-5-carboxylic acid], the IC50 was found to be 210 nM.

`NC(=O)c1ccc(COc2ccc(-c3nc4cc(C(=O)O)ccc4n3C3CCCCC3)cc2)c(-c2ccc(Cl)cc2)c1` [Example 225, 2-{4-[4-carbamoyl-2-(4-chlorophenyl)benzyloxy]phenyl}-1-cyclohexylbenzimidazole-5-carboxylic acid]: the IC50 was determined as 14 nM.

`O=C(O)c1ccc2c(c1)nc(-c1ccc(Oc3cccc(OCc4ccnc(Cl)c4)c3)cc1)n2C1CCCCC1` [Example 227, 2-{4-[3-{(2-chloro-4-pyridyl)methoxy}phenoxy]phenyl}-1-cyclohexylbenzimidazole-5-carboxylic acid]: the 50% inhibitory concentration (IC50) is 45 nM.

For the compound `CN(C)C(=O)c1ccc(N2CCC[C@H]2COc2ccc(-c3nc4cc(C(=O)O)ccc4n3C3CCCCC3)cc2)cc1` [Example 228, 2-{4-[{(2S)-1-(4-dimethylcarbamoylphenyl)-2-pyrrolidinyl}-methoxy]phenyl}-1-cyclohexylbenzimidazole-5-carboxylic acid], the IC50 worked out at 180 nM.

On to `CCOC(=O)c1ccc(-c2ccc(Cl)cc2)c(COc2ccc(-c3nc4cc(C(=O)O)ccc4n3C3CCCCC3)cc2)c1` [Example 229, 2-{4-[2-(4-chlorophenyl)-5-ethoxycarbonylbenzyloxy]phenyl}-1-cyclohexylbenzimidazole-5-carboxylic acid], for which the IC50 stood at 22 nM.

Take `O=C(O)c1ccc2c(c1)nc(-c1ccc(Oc3cccc(C(F)(F)F)c3)cc1)n2C1CCCCC1` [Example 230, 1-cyclohexyl-2-[4-(3-trifluoromethylphenoxy)phenyl]-benzimidazole-5-carboxylic acid]: the IC50 came out at 170 nM.

Regarding `Cc1nc(-c2ccc(C(=O)N(C)C)cc2)c(COc2ccc(-c3nc4cc(C(=O)O)ccc4n3C3CCCCC3)cc2)s1` [Example 231, 1-cyclohexyl-2-{4-[{4-(4-dimethylcarbamoylphenyl)-2-methyl-5-thiazolyl}methoxy]phenyl}benzimidazole-5-carboxylic acid], the IC50 is 73 nM.

For `O=C(O)c1ccc2c(c1)nc(-c1ccc(OCc3cccnc3-c3ccc(Cl)cc3)cc1)n2C1CCCCC1` [Example 234, 2-{4-[{2-(4-chlorophenyl)-3-pyridyl}methoxy]phenyl}-1-cyclohexylbenzimidazole-5-carboxylic acid dihydrochloride], the IC50 was 22 nM.

`O=C(O)c1ccc2c(c1)nc(-c1ccc(OCc3ncccc3-c3ccc(Cl)cc3)cc1)n2C1CCCCC1` [Example 235, 2-{4-[{3-(4-chlorophenyl)-2-pyridyl}methoxy]phenyl}-1-cyclohexylbenzimidazole-5-carboxylic acid]: the IC50 amounted to 36 nM.

Take `CNc1nc(Oc2ccc(-c3nc4cc(C(=O)O)ccc4n3C3CCCCC3)cc2)nc(-c2cccc(Cl)c2)n1` [Example 236, 2-{4-[2-(3-chlorophenyl)-4-methylamino-1,3,5-triazin-6-yloxy]phenyl}-1-cyclohexylbenzimidazole-5-carboxylic acid trifluoroacetate]: the half-inhibitory concentration (IC50) was 75 nM.

Regarding `O=C(O)c1ccc2c(c1)nc(-c1ccc(OCc3ccc(-c4nnn[nH]4)cc3-c3ccc(Cl)cc3)cc1)n2C1CCCCC1` [Example 237, 2-{4-[2-(4-chlorophenyl)-4-(5-tetrazolyl)benzyloxy]phenyl}-1-cyclohexylbenzimidazole-5-carboxylic acid], the IC50 turned out to be 15 nM.

In the case of `O=C(O)c1ccc2c(c1)nc(-c1ccc(Oc3cc(OCc4ccccc4)ncn3)cc1)n2C1CCCCC1` [Example 238, 2-[4-(4-benzyloxy-6-pyrimidinyloxy)phenyl]-1-cyclohexylbenzimidazole-5-carboxylic acid], the half-maximal inhibitory concentration (IC50) stood at 190 nM.

`O=C(O)c1ccc2c(c1)nc(-c1ccc(Oc3cc(OCc4ccncc4)ncn3)cc1)n2C1CCCCC1` [Example 239, 1-cyclohexyl-2-{4-[4-(4-pyridylmethoxy)-6-pyrimidinyloxy]phenyl}-benzimidazole-5-carboxylic acid]: the IC50 is 170 nM.

In the case of `CNC(=O)c1ccc(-c2ccc(Cl)cc2)c(COc2ccc(-c3nc4cc(C(=O)O)ccc4n3C3CCCCC3)cc2)c1` [Example 248, 2-{4-[2-(4-chlorophenyl)-5-methylcarbamoylbenzyloxy]phenyl}-1-cyclohexylbenzimidazole-5-carboxylate hydrochloride], the IC50 stood at 12 nM.

Consider `CC(C)(C)NS(=O)(=O)c1ccc(-c2ccc(Cl)cc2)c(COc2ccc(-c3nc4cc(C(=O)O)ccc4n3C3CCCCC3)cc2)c1` [Example 249, 2-{4-[3-(tert-butylsulfamoyl)-6-(4-chlorophenyl)benzyloxy]-phenyl}-1-cyclohexylbenzimidazole-5-carboxylic acid], for which the 50% inhibitory concentration (IC50) was 22 nM.

With `O=C(O)c1ccc2c(c1)nc(-c1ccc(COc3ccccc3-c3ccccc3)s1)n2C1CCCCC1` [Example 252, 2-[2-(2-biphenylyloxymethyl)-5-thienyl]-1-cyclohexylbenzimidazole-5-carboxylic acid], the 50% inhibitory concentration (IC50) worked out at 320 nM.

Consider `O=C(O)c1ccc2c(c1)nc(-c1ccc(COc3ccccc3-c3ccccc3)o1)n2C1CCCCC1` [Example 253, 2-[2-(2-biphenylyloxymethyl)-5-furyl]-1-cyclohexylbenzimidazole-5-carboxylic acid], for which the IC50 came to 650 nM.

Consider `O=C(O)c1ccc2c(c1)nc(-c1ccc(OCc3sc(CO)nc3-c3ccc(F)cc3)cc1)n2C1CCCCC1` [Example 254, 1-cyclohexyl-2-{4-[{4-(4-fluorophenyl)-2-hydroxymethyl-5-thiazolyl}methoxy]phenyl}benzimidazole-5-carboxylic acid], for which the IC50 came out at 38 nM.

For `Cc1nc(-c2ccc(C(=O)O)cc2)c(COc2ccc(-c3nc4cc(C(=O)O)ccc4n3C3CCCCC3)cc2)s1` [Example 255, 1-cyclohexyl-2-{4-[{4-(4-carboxyphenyl)-2-methyl-5-thiazolyl}-methoxy]phenyl}benzimidazole-5-carboxylic acid hydrochloride], the half-maximal inhibitory concentration (IC50) was determined as 38 nM.

As for `O=C(O)c1ccc2c(c1)nc(-c1ccc(OCc3ccc(F)cc3C(=O)c3cccc(F)c3)cc1F)n2C1CCCCC1` [Example 256, 1-cyclohexyl-2-{2-fluoro-4-[4-fluoro-2-(3-fluorobenzoyl)benzyloxy]phenyl}benzimidazole-5-carboxylic acid], the IC50 turned out to be 79 nM.

For the compound `COc1ccc(-c2ccc(Cl)cc2)c(COc2ccc(-c3nc4cc(S(=O)(=O)O)ccc4n3C3CCCCC3)cc2)c1` [Example 257, 2-{4-[2-(4-chlorophenyl)-5-methoxybenzyloxy]phenyl}-1-cyclohexylbenzimidazole-5-sulfonic acid], the IC50 turned out to be 74 nM.

On to `CN(C)C(=O)c1cc(OCc2ccncc2)cc(Oc2ccc(-c3nc4cc(C(=O)O)ccc4n3C3CCCCC3)cc2)c1` [Example 259, 1-cyclohexyl-2-{4-[3-dimethylcarbamoyl-5-(4-pyridylmethoxy)-phenoxy]phenyl}benzimidazole-5-carboxylic acid dihydrochloride], for which the IC50 came to 100 nM.

As to `O=C(O)c1cc(OCc2ccncc2)cc(Oc2ccc(-c3nc4cc(C(=O)O)ccc4n3C3CCCCC3)cc2)c1` [Example 260, 1-cyclohexyl-2-{4-[3-carboxy-5-(4-pyridylmethoxy)phenoxy]-phenyl}benzimidazole-5-carboxylic acid dihydrochloride], the concentration for half-maximal inhibition (IC50) was 270 nM.

Consider `O=C(O)c1ccc(-c2ncccc2COc2ccc(-c3nc4cc(C(=O)O)ccc4n3C3CCCCC3)cc2)cc1` [Example 263, 2-{4-[{2-(4-carboxyphenyl)-3-pyridyl}methoxy]phenyl}-1-cyclohexylbenzimidazole-5-carboxylic acid], for which the concentration for half-maximal inhibition (IC50) stood at 35 nM.

Turning to `COc1ccc(-c2ccc(Cl)cc2)c(COc2ccc(-c3nc4cc(C(=O)O)ccc4n3C3CCSCC3)cc2)c1` [Example 264, 2-{4-[2-(4-chlorophenyl)-5-methoxybenzyloxy]phenyl}-1-(4-tetrahydrothiopyranyl)benzimidazole-5-carboxylic acid], the IC50 is under 10 nM.
